Laboratory results: EP4799624A2 (priority 2021, dated 2023)
Converted amounts (≈) assume the structure as drawn. Read-outs that look alike come from different tables or passages of the source.

How the values were obtained:
SARS-CoV-2 [1] = conditions: for activity in the HeLa-ACE2 cell-based SARS-CoV-2 assay: 35 ActivPred compounds tested; for Nh (Hill) coefficient: dose curves fitted with the four parameter Hill Equation
[2] = in vivo, cited from earlier work
SARS-CoV-2 [3] = conditions: Day 4, cited from earlier work
SARS-CoV-2 [4] = assay: microbe, parasite or virus in culture
[5] = for adverse reactions / clinical signs: PO 50 and 250 mg/kg, single and 5 days, female 129S1 mice; for Mean: mean of 3 mice (± SD in Table 16); for AUC∞: extrapolated to ∞
[6] = rat, in vivo
[7] = values compared in Example 2; cited from earlier work
COVID-19 = conditions: ReFRAME study A00473; cited from earlier work
[8] = range for all doses (10-200 mg), human plasma, cited from earlier work
[9] = rat and monkey studies; cited from earlier work
[10] = single oral doses 1-200 mg; cited from earlier work
SARS-CoV-2/WA1 = format: cell-based, SARS-CoV-2 isolate USA-WA1/2020; conditions: Severe acute respiratory syndrome coronavirus 2, HeLa-ACE2, read-out: SARS-CoV-2 IC50 value
[11] = ReFRAME study A00511; cited from earlier work
SARS-CoV-2 [12] = conditions: cited from earlier work
in vivo = conditions: rat, po, 1000 mg/kg
A/WSN/33 = assay: Influenza antiviral assay (IF-based) in A549 cells; format: cell-based, H1N1 influenza A virus; conditions: Influenza A virus, A549, 24 h
[13] = human liver slices and microsomes; cited from earlier work
SARS-CoV-2 [14] = conditions: same methods as used in this study; cited from earlier work
Ebola VLP entry = conditions: cited from earlier work
[15] = Severe acute respiratory syndrome coronavirus 2, HeLa-ACE2, 24 h
[16] = lung, 250 mg/kg PO five consecutive days (Group 2, MD)
[17] = plasma, 50 mg/kg PO five consecutive days (Group 1, MD)
[18] = plasma, 50 mg/kg PO single dose (Group 1, SD)
[19] = plasma, 50 mg/kg PO single dose (Group 1, SD), 50 mg/kg
[20] = plasma, 250 mg/kg PO five consecutive days (Group 2, MD)
[21] = plasma, 250 mg/kg PO single dose (Group 2, SD)

## Cc1c2c(nn1C)CSCc1cc(n(C)n1)CSc1cc(c3ccccc3c1)OCCCc1c(C(=O)O)n(C)c3c-2c(Cl)ccc13 [AZD-5991]
SARS-CoV-2 [1]
  activity in the HeLa-ACE2 cell-based SARS-CoV-2 assay: demonstrated activity

## Cc1c(-c2ccc(O)cc2)n(Cc2ccc(OCCN3CCCCCC3)cc2)c2ccc(O)cc12 [Bazedoxifene, reference compound]
[2]; human
  dose safely tolerated: 20 mg/day
[2]; rat
  dose safely tolerated: 100 mg/kg/day

## CNCc1ccc(-c2cc(-c3nc(-c4ccc(S(=O)(=O)C(C)C)cc4)cnc3N)on2)cc1 [Berzosertib, reference compound]
SARS-CoV-2 [1]
  activity in the HeLa-ACE2 cell-based SARS-CoV-2 assay: demonstrated activity
  Nh (Hill) coefficient: 1.485

## CC(C)(C)[C@H](NC(=O)C(F)(F)F)C(=O)N1C[C@H]2[C@@H]([C@H]1C(=O)N[C@H](C#N)C[C@@H]1CCNC1=O)C2(C)C [Nirmatrelvir]
SARS-CoV-2 [3]; 300 mg/kg
  log reduction in viral load: 1.4 log
SARS-CoV-2 [3]; 1000 mg/kg BID
  reduction in viral load: 1.91 log10 CCID50/mL
SARS-CoV-2 [3]; 1000 mg/kg
  log reduction in viral load: 1.9 log

## COc1cc(Cl)cc(C(C)Nc2cc(N3CCNCC3)ccc2S(C)(=O)=O)c1OC.Cl (stereo not drawn) [PRX-07034]
SARS-CoV-2 [1]
  activity in the HeLa-ACE2 cell-based SARS-CoV-2 assay: demonstrated activity

## Cc1c(-c2ccc(O)cc2)n(Cc2ccc(OCCN3CCCCC3)cc2)c2ccc(O)cc12 [Pipendoxifene, 2-(4-hydroxyphenyl)-3-methyl-1-[[4-(2-piperidin-1-ylethoxy)phenyl]methyl]indol-5-ol]
SARS-CoV-2 [4]; Severe acute respiratory syndrome coronavirus 2, HeLa-ACE2
  EC90: 14.3 µM
SARS-CoV-2 [4]; [15]
  EC10: 5.01 µM
  EC50: < 9600 nM
SARS-CoV-2 [4]; Severe acute respiratory syndrome coronavirus 2, HeLa-ACE2, calculated with the Hill equation (Equation I) from nH 4 and EC10
  EC90: 15 µM
SARS-CoV-2 [4]; Severe acute respiratory syndrome coronavirus 2, HeLa-ACE2, read-out: EC90 range, range from Equations I and II
  EC90: 14.3 to 15 µM
[5]; Group 2, MD (multiple, 5-day, dose) 250 mg/kg oral, 8.0 hr
  Average plasma concentration: 575 ± 194 ng/mL
[5]
  adverse reactions / clinical signs: no adverse events at doses up to 250mg/kg
[5]; listed as pipendoxifene
  adverse reactions / clinical signs: No adverse reactions were observed
[5]; lung tissue, individual mice, 50 mg/kg PO single dose, 8.0 hr, 50 mg/kg, 480 min
  Conc.: 7840 ng/g
[5]; lung tissue, 50 mg/kg PO five consecutive days, 8.0 hr, 50 mg/kg, 480 min
  Mean: 5613 ± 1602 ng/g
[5]; lung tissue, 50 mg/kg PO single dose, 4.0 hr, 50 mg/kg, 240 min
  Mean: 8310 ± 630 ng/g
[5]; lung tissue, 250 mg/kg PO five consecutive days, 4.0 hr, 250 mg/kg, 240 min
  Mean: 39000 ± 15321 ng/g
[5]; lung tissue, 250 mg/kg PO single dose, 8.0 hr, 250 mg/kg, 480 min
  Mean: 24733 ± 17321 ng/g
[5]; lung, 50 mg/kg PO five consecutive days (Group 1, MD)
  tmax: 8.0 h
[5]; [16]
  MRTlast: 7.22 h
  tmax: 4.0 h
[5]; lung, 250 mg/kg PO single dose (Group 2, SD)
  tmax: 8.0 h
[5]; mouse, in vivo, po
  plasma t1/2: 2.36 to 3.96 h
[5]; [17]
  MRTlast: 7.10 h
  t1/2: 2.58 h
  tmax: 6.0 h
  AUC∞: 1396 ng·h/mL
[5]; plasma, 50 mg/kg PO five consecutive days (Group 1, MD), 50 mg/kg
  AUClast (hr·ng/mL) ± SE: 1391 ± 55 ng·h/mL
[5]; [18]
  MRTlast: 6.95 h
  t1/2: 2.36 h
  tmax: 2.0 h
  AUC∞: 1602 ng·h/mL
[5]; [19]
  AUClast (hr·ng/mL) ± SE: 1600 ± 115 ng·h/mL
  Cmax (ng/mL) ± SE: 179 ± 21 ng/mL
[5]; [20]
  t1/2: 2.52 h
  tmax: 6.0 h
  AUC∞: 11664 ng·h/mL
[5]; plasma, 250 mg/kg PO five consecutive days (Group 2, MD), 250 mg/kg
  AUClast (hr·ng/mL) ± SE: 11628 ± 1191 ng·h/mL
[5]; [21]
  MRTlast: 8.86 h
  t1/2: 3.96 h
  tmax: 6.0 h
  AUC∞: 10461 ng·h/mL
[5]; plasma, 250 mg/kg PO single dose (Group 2, SD), 250 mg/kg
  Cmax (ng/mL) ± SE: 1020 ± 693 ng/mL
[5]; plasma, 50 mg/kg PO five consecutive days, 1.0 hr, 50 mg/kg, 60 min
  Mean: 56.0 ± 20.7 ng/mL
[5]; plasma, 50 mg/kg PO single dose, 2.0 hr, 50 mg/kg, 120 min
  Mean: 179 ± 37 ng/mL
[5]; plasma, 250 mg/kg PO five consecutive days, 8.0 hr, 250 mg/kg, 480 min
  Mean: 575 ± 194 ng/mL
[5]; plasma, 250 mg/kg PO single dose, 6.0 hr, 250 mg/kg, 360 min
  Mean: 1020 ± 1200 ng/mL
[6]
  Cmax: 311 1 42 ng/mL
  Lung C24h exceeding the IC50 value: 5.4 fold
[6]; po
  plasma t1/2: 4.71 to 6.06 h
[6]; po, 250 mg/kg
  AUClast ± SE: 3515 ± 980 ng·h/mL
[6]; po, 750 mg/kg
  AUClast ± SE: 5260 ± 1970 ng·h/mL
[7]
  t ½: 15.8 to 27.3 h
COVID-19
  result in COVID-19 Cytopathic Effect (CPE) Assay: INACTIVE
[8]
  mean terminal t1/2: 15.8 to 27.3 h
[8]; listed as pipendoxifene
  mean terminal t1/2: 15.8 to 27.3 h
[9]
  primary metabolite: primarily metabolized to an indole glucuronide
[10]
  tolerability: well tolerated with only mild transient adverse events observed at all doses
[2]; human
  dose safely tolerated: up to 200 mg/daily
[2]; mouse
  dose safely tolerated: at least 20 mg/kg/day
SARS-CoV-2/WA1
  IC50: 0.328 µg/mL (≈ 0.718 µM)
[11]
  result in SARS CoV-2 CPE Cytotoxicity Assay: INACTIVE
SARS-CoV-2 [12]
  result in SARS-CoV-2/HeLa-ACE2 HCI assay - % infected cells: INACTIVE
SARS-CoV-2 [1]
  EC50: 8.24 µM
  activity in the HeLa-ACE2 cell-based SARS-CoV-2 assay: demonstrated activity
  Nh (Hill) coefficient: 4
SARS-CoV-2 [1]; listed as pipendoxifene
  EC50: 8.42 µM
In vivo
  concentration at 6 h: 501 ng/mL
A/WSN/33
  IC50: 7.49 µM
[13]
  primary human metabolite: the same indole glucuronide as found in the preclinical models

## CCC(CC)COC(=O)[C@H](C)N[P@](=O)(OC[C@H]1O[C@@](C#N)(c2ccc3c(N)ncnn23)[C@H](O)[C@@H]1O)Oc1ccccc1 [Remdesivir, reference compound]
SARS-CoV-2 [4]; [15]
  EC50: 130 nM
[7]
  t ½: 1 h
SARS-CoV-2 [1]
  increase in EC50 from MOI=1 to MOI=26: 2.7 fold

## Cc1cccc(/C=N/Nc2cc(N3CCOCC3)nc(OCCc3ccccn3)n2)c1 [apilimod, reference compound]
SARS-CoV-2 [4]; Severe acute respiratory syndrome coronavirus 2, HeLa-ACE2, read-out: maximal efficacy
  Emax: 85 to 90%
SARS-CoV-2 [1]
  increase in EC50 from MOI=1 to MOI=26: 3.7 fold

## COc1ccc(C[C@H](N)C(=O)N[C@H]2[C@@H](O)[C@H](n3cnc4c(N(C)C)ncnc43)O[C@@H]2CO)cc1 [puromycin, reference compound]
SARS-CoV-2 [4]; Severe acute respiratory syndrome coronavirus 2, HeLa-ACE2, […], average ± sem of 5 independent experiments
  EC50: 547 ± 27 nM

## O=C(c1ccc(OCCN2CCCCC2)cc1)c1c(-c2ccc(O)cc2)sc2cc(O)ccc12 [raloxifene]
SARS-CoV-2 [14]
  EC50: 4.13 µM
Ebola VLP entry; Ebola VLP entry
  SI: > 10
Ebola VLP entry; speculated active compounds, read-out: IC50, block of Ebola VLP entry in vitro
  IC50: < 10 µM

## Nc1ncnc2c1nc(Cl)n2[C@@H]1O[C@@H]2COP(=O)(O)O[C@H]2[C@H]1O [tocladesine]
SARS-CoV-2 [1]
  activity in the HeLa-ACE2 cell-based SARS-CoV-2 assay: demonstrated activity
